This note sets out measurements from US9517275B2, “Targeted therapy for the prevention of restenosis in the cardiovascular system” (Northwestern University, priority 2013, dated 2016).

Residues, ends and D or L forms follow the SMILES beside them. *: point of attachment. Lauroyl = CCCCCCCCCCCC(=O)*

A short description of data set [1]: Small angle X-ray scattering (SAXS) of nanostructures. Format: physicochemical. The procedure: Small angle X-ray scattering (SAXS) experiments were performed at the Advanced Photon Source, Argonne National Laboratory. The X-ray energy (15 keV) was selected using a double-crystal monochromator with a 30 mm offset. Samples were dissolved at a concentration of 5 mM in PBS and placed in 1.5 mm quartz capillary tubes. The typical incident X-ray flux on the sample was ˜1×10^12 photons/s with a 0.2×0.3 mm^2 collimator, and samples were exposed for 4 s. The 1D scattering profiles were obtained by azimuthal integration of the 2D patterns, with scattering from the capillaries and PBS buffer subtracted as background. Scattering profiles were then plotted on a relative scale as a function of the scattering vector q=(4π/λ) sin(θ/2), where θ is the scattering angle.

How the values of data set [2] were obtained:
Adult male Sprague-Dawley rats weighing 350 to 400 g underwent midline neck incision with exposure of internal jugular vein. Targeted nanofiber 2.5 mg was dissolved in 1.0 mL of HBBS and injected within the internal jugular vein using 25 G needle. After complete injection, needle was withdrawn, pressure held at the injection site for 1 minute and the neck incision was closed. Rats were euthanized at 10, 15, 30, 60 min, 4, 16 hours, 4 and 6 days post injection and viscera (liver, lung, kidney and spleen) were harvested.
Carotid arteries and viscera were harvested after in-situ perfusion-fixation with PBS (250 mL) and placed in 2% paraformaldehyde overnight.

As to KLWVLPKC, the “self-assembly by SAXS” value in data set [1] is on record as “did not display any evidence of self-assembly”.

With `CCCCCCCCCCCC(=O)NCCCC[C@H](NC(=O)[C@@H](NC(=O)[C@@H](NC(=O)[C@H](C)NC(=O)[C@H](C)NC(=O)[C@H](CCCCN)NC(=O)[C@H](CCCCN)NC(=O)[C@H](CS)NC(=O)[C@H](CCCCN)NC(=O)[C@@H]1CCCN1C(=O)[C@H](CC(C)C)NC(=O)[C@H](Cc1c[nH]c2ccccc12)NC(=O)[C@@H](NC(=O)[C@H](CC(C)C)NC(=O)[C@@H](N)CCCCN)C(C)C)C(C)C)C(C)C)C(=O)O` [targeted nanofiber, KLVWLPKCK2A2V2K(C12)] (H-KLVWLPKCKKAAVVK(Lauroyl)-OH; N-terminus and C-terminus assumed), in data set [2] (2.5 mg internal jugular vein), the “earliest time fluorescence present within the kidneys” value was 10 min, the “fluorescence in the kidneys over time” value is given as “increasing fluorescence”, the “fluorescence in the liver over time” value is reported as “Decreasing fluorescence” and the “latest time fluorescence present within the kidneys” value is on record as 6 days. Further, the “fluorescence within the liver and kidneys” value in data set [2] (2.5 mg internal jugular vein, 10 min to 6 days) is on record as “Fluorescence was observed”. In data set [2] (any of the time points), the “fluorescence in the brain, heart, intestine and lungs” value is on record as “no fluorescence detected”.
